Our source for the MIC values is ChEMBL document CHEMBL1649262, “Nosocomial spread of colistin-only-sensitive sequence type 235 Pseudomonas aeruginosa isolates producing the extended-spectrum beta-lactamases GES-1 and GES-5 in Spain” (2009).

Assay [1] deals with Pseudomonas aeruginosa. Description: Antibacterial activity against mexB and mexY expressing Pseudomonas aeruginosa PA-A3 harboring GyrA T83I, ParC S87L and IS1001 insertion at position 629 in OprD gene by Etest method. In kind it is functional.
Assay [2] deals with Pseudomonas aeruginosa. Put plainly: Antibacterial activity against mexB and mexY expressing Pseudomonas aeruginosa PA-A2 harboring GyrA T83I, ParC S87L and IS1001 insertion at position 629 in OprD gene by Etest method. Type of assay: functional.
Assay [3] deals with Pseudomonas aeruginosa. Put plainly: Antibacterial activity against Pseudomonas aeruginosa PAO1 harboring plasmid pA1 by Etest method. Type of assay: functional.
Assay [4] has as its system Pseudomonas aeruginosa. Put plainly: Antibacterial activity against Pseudomonas aeruginosa PAO1 by Etest method. Type of assay: functional.
For assay [5], the system named is Pseudomonas aeruginosa. Put plainly: Antibacterial activity against mexB and mexY expressing Pseudomonas aeruginosa PA-A1 harboring GyrA T83I, ParC S87L and IS1001 insertion at position 629 in OprD gene by Etest method. In kind it is functional.
For assay [6], the system named is Pseudomonas aeruginosa. Description: Antibacterial activity against Pseudomonas aeruginosa PAO1 harboring plasmid pA1 by Etest in presence of clavulanic acid.
For assay [7], the system named is Pseudomonas aeruginosa. Put plainly: Antibacterial activity against mexB and mexY expressing Pseudomonas aeruginosa PA-A3 harboring GyrA T83I, ParC S87L and IS1001 insertion at position 629 in OprD gene by Etest method in presence of Tazobactam. In kind it is functional.
For assay [8], the system named is Pseudomonas aeruginosa. Put plainly: Antibacterial activity against Pseudomonas aeruginosa PAO1 by Etest method in presence of Tazobactam. Type of assay: functional.
Assay [9] relates to Pseudomonas aeruginosa. Put plainly: Antibacterial activity against mexB and mexY expressing Pseudomonas aeruginosa PA-A2 harboring GyrA T83I, ParC S87L and IS1001 insertion at position 629 in OprD gene by Etest method in presence of Tazobactam. Type of assay: functional.
Assay [10] has as its system Pseudomonas aeruginosa. Description: Antibacterial activity against mexB and mexY expressing Pseudomonas aeruginosa PA-A1 harboring GyrA T83I, ParC S87L and IS1001 insertion at position 629 in OprD gene by Etest method in presence of Tazobactam. Type of assay: functional.
In assay [11] the test system is Pseudomonas aeruginosa. Put plainly: Antibacterial activity against Pseudomonas aeruginosa PAO1 harboring plasmid pA1 by Etest method in presence of Tazobactam. Type of assay: functional.

In brackets after ≈: the same amount, converted by molar mass. Where only a bound is given, the exact number is not on record here.

As to `NCC[C@H](O)C(=O)N[C@@H]1C[C@H](N)[C@@H](O[C@H]2O[C@H](CN)[C@@H](O)[C@H](O)[C@H]2O)[C@H](O)[C@H]1O[C@H]1O[C@H](CO)[C@@H](O)[C@H](N)[C@H]1O` [AMIKACIN], the MIC was greater than 256 µg/mL against Pseudomonas aeruginosa [1]; greater than 256 µg/mL against Pseudomonas aeruginosa [2]; greater than 32 µg/mL in the assay with Pseudomonas aeruginosa [3]; 4 µg/mL (≈ 6.83 µM) in the assay on Pseudomonas aeruginosa [4]; greater than 256 µg/mL against Pseudomonas aeruginosa [5].

For `C[C@H]1[C@H](NC(=O)/C(=N\OC(C)(C)C(=O)O)c2csc(N)n2)C(=O)N1S(=O)(=O)O` [AZTREONAM], the minimum inhibitory concentration (MIC) against Pseudomonas aeruginosa [1] was greater than 256 µg/mL; with Pseudomonas aeruginosa [2], greater than 256 µg/mL; against Pseudomonas aeruginosa [3] it was greater than 256 µg/mL; in the assay on Pseudomonas aeruginosa [4] it was 1.5 µg/mL (≈ 3.44 µM); against Pseudomonas aeruginosa [5] it was greater than 256 µg/mL.

For `CO/N=C(\C(=O)N[C@@H]1C(=O)N2C(C(=O)[O-])=C(C[N+]3(C)CCCC3)CS[C@H]12)c1csc(N)n1` [CEFEPIME], the MIC with Pseudomonas aeruginosa [1], in the assay with Pseudomonas aeruginosa [2], with Pseudomonas aeruginosa [3] and against Pseudomonas aeruginosa [5] was greater than 256 µg/mL in each case.

Turning to `CC(C)(O/N=C(\C(=O)N[C@@H]1C(=O)N2C(C(=O)[O-])=C(C[n+]3ccccc3)CS[C@H]12)c1csc(N)n1)C(=O)O` [CEFTAZIDIME], the MIC in the assay with Pseudomonas aeruginosa [1] was greater than 256 µg/mL; with Pseudomonas aeruginosa [2] it was greater than 256 µg/mL; with Pseudomonas aeruginosa [3], greater than 256 µg/mL; in the assay with Pseudomonas aeruginosa [4], 1 µg/mL (≈ 1.83 µM); with Pseudomonas aeruginosa [5], greater than 256 µg/mL.

Regarding `O=C(O)c1cn(C2CC2)c2cc(N3CCNCC3)c(F)cc2c1=O` [CIPROFLOXACIN], the MIC is greater than 32 µg/mL in the assay with Pseudomonas aeruginosa [1], greater than 32 µg/mL in the assay with Pseudomonas aeruginosa [2], 0.064 µg/mL (≈ 0.193 µM) in the assay on Pseudomonas aeruginosa [3] and greater than 32 µg/mL with Pseudomonas aeruginosa [5].

As for `C[C@@H](O)[C@H]1C(=O)N2C(C(=O)O)=C(SCCNC=N)C[C@H]12` [IMIPENEM ANHYDROUS], the MIC was 4 µg/mL with Pseudomonas aeruginosa [6]; greater than 32 µg/mL against Pseudomonas aeruginosa [1]; greater than 32 µg/mL in the assay with Pseudomonas aeruginosa [2]; 8 µg/mL (≈ 26.7 µM) against Pseudomonas aeruginosa [3]; 1 µg/mL (≈ 3.34 µM) with Pseudomonas aeruginosa [4]; greater than 32 µg/mL with Pseudomonas aeruginosa [5].

Take `C[C@@H](O)[C@H]1C(=O)N2C(C(=O)O)=C(S[C@@H]3CN[C@H](C(=O)N(C)C)C3)[C@H](C)[C@H]12` [MEROPENEM]: the MIC is greater than 32 µg/mL in the assay with Pseudomonas aeruginosa [1]; greater than 32 µg/mL with Pseudomonas aeruginosa [2]; greater than 32 µg/mL against Pseudomonas aeruginosa [3]; 0.25 µg/mL (≈ 0.652 µM) with Pseudomonas aeruginosa [4]; greater than 32 µg/mL against Pseudomonas aeruginosa [5].

For `CCN1CCN(C(=O)N[C@@H](C(=O)N[C@@H]2C(=O)N3[C@@H]2SC(C)(C)[C@@H]3C(=O)O)c2ccccc2)C(=O)C1=O` [PIPERACILLIN], the MIC against Pseudomonas aeruginosa [1] is greater than 256 µg/mL; with Pseudomonas aeruginosa [2], greater than 256 µg/mL; in the assay with Pseudomonas aeruginosa [7], greater than 256 µg/mL; with Pseudomonas aeruginosa [8] it was 2 µg/mL; with Pseudomonas aeruginosa [9] it was greater than 256 µg/mL; against Pseudomonas aeruginosa [3], greater than 256 µg/mL. Further, the MIC was greater than 256 µg/mL with Pseudomonas aeruginosa [10], 3 µg/mL (≈ 5.8 µM) in the assay with Pseudomonas aeruginosa [4], greater than 256 µg/mL against Pseudomonas aeruginosa [5] and greater than 256 µg/mL in the assay on Pseudomonas aeruginosa [11].

For `NC[C@H]1O[C@H](O[C@H]2[C@H](O)[C@@H](O[C@H]3O[C@H](CO)[C@@H](O)[C@H](N)[C@H]3O)[C@H](N)C[C@@H]2N)[C@H](N)C[C@@H]1O` [TOBRAMYCIN], the MIC in the assay on Pseudomonas aeruginosa [1] was greater than 256 µg/mL; against Pseudomonas aeruginosa [2], greater than 256 µg/mL; in the assay with Pseudomonas aeruginosa [3], 16 µg/mL (≈ 34.2 µM); in the assay with Pseudomonas aeruginosa [4], 1 µg/mL (≈ 2.14 µM); in the assay on Pseudomonas aeruginosa [5], greater than 256 µg/mL.

As to COLISTIN, the MIC was 2 µg/mL with Pseudomonas aeruginosa [1]; 2 µg/mL against Pseudomonas aeruginosa [2]; 1 µg/mL with Pseudomonas aeruginosa [3]; 1 µg/mL against Pseudomonas aeruginosa [4]; 2 µg/mL against Pseudomonas aeruginosa [5].

Regarding GENTAMICIN, the MIC against Pseudomonas aeruginosa [1] was greater than 256 µg/mL; in the assay on Pseudomonas aeruginosa [2], greater than 256 µg/mL; in the assay on Pseudomonas aeruginosa [4] it was 2 µg/mL; in the assay on Pseudomonas aeruginosa [5] it was greater than 256 µg/mL.

What is called MIC is the smallest concentration in the dilution series that meets the test's criterion for growth inhibition.
